Legend:
PIK3CD (Human) [1] = molecular target: PIK3CD (Human) (UniProt O00329); assay: Cell-Based Assay; settings: u937
PIK3CD (Human) [2] = molecular target: PIK3CD (Human) (UniProt O00329); assay: Enzyme Assay
PIK3CA (human) = PIK3CA (human) (UniProt P42336); assay: Assessment of PIK3CA Kinase Activity
PIK3CG (human) = PIK3CG (human) (UniProt P48736); assay: Assessment of PIK3CG Kinase Activity
Chain of PIK3CG (human) (P48736 whole entry, looked up): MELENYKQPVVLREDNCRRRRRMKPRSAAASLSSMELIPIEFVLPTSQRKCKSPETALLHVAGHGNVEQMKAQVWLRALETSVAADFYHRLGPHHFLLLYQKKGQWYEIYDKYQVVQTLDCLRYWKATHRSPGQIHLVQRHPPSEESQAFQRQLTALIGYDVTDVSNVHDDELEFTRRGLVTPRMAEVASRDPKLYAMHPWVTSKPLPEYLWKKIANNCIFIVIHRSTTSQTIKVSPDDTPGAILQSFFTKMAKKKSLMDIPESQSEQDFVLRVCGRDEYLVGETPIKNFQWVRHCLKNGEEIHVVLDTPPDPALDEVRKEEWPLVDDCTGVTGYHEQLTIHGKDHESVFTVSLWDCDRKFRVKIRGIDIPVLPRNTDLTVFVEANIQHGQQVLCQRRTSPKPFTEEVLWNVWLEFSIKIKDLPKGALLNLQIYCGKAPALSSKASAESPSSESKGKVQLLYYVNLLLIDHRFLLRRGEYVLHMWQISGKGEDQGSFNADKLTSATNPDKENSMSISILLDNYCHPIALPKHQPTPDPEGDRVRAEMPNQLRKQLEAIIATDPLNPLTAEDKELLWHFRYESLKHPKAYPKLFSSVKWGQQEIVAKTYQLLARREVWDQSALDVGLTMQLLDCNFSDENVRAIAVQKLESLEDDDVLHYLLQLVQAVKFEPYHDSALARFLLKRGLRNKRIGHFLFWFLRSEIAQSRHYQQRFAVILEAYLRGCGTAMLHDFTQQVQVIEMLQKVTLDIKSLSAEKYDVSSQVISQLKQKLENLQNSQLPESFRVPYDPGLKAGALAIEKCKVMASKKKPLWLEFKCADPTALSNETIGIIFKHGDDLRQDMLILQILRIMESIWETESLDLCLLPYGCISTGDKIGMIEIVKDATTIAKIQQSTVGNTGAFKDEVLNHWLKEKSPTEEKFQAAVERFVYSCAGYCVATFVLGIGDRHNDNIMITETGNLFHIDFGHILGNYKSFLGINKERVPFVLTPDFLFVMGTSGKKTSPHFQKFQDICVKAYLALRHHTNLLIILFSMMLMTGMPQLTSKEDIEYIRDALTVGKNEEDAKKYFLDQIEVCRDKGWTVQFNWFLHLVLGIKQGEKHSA

Chain of PIK3CD (Human) (O00329 whole entry, looked up): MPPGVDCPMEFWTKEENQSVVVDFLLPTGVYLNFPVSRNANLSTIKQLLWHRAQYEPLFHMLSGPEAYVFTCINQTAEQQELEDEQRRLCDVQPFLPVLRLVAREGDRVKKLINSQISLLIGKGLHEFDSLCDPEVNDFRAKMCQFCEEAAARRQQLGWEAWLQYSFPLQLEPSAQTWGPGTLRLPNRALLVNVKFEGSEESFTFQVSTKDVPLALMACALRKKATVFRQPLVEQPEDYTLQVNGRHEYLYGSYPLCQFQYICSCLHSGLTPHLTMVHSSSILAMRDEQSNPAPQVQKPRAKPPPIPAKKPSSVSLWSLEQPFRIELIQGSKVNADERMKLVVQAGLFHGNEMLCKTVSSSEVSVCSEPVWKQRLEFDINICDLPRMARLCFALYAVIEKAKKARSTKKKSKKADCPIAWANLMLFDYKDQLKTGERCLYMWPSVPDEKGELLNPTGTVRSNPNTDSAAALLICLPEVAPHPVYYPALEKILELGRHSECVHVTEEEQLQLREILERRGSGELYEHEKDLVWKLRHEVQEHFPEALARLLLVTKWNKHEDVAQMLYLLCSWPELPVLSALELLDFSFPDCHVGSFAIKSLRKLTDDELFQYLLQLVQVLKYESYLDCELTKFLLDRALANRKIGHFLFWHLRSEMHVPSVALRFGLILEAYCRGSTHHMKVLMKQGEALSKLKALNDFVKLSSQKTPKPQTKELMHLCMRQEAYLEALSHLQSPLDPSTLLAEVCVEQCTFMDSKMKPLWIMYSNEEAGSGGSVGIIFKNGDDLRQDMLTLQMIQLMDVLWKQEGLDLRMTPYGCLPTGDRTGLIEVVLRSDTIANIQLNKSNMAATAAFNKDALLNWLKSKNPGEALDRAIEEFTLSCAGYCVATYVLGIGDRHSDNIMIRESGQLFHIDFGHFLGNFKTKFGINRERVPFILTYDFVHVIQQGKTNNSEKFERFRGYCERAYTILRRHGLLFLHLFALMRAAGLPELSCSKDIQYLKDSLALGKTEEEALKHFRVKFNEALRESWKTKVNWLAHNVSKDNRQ
Chain of PIK3CA (human) (P42336 whole entry, looked up): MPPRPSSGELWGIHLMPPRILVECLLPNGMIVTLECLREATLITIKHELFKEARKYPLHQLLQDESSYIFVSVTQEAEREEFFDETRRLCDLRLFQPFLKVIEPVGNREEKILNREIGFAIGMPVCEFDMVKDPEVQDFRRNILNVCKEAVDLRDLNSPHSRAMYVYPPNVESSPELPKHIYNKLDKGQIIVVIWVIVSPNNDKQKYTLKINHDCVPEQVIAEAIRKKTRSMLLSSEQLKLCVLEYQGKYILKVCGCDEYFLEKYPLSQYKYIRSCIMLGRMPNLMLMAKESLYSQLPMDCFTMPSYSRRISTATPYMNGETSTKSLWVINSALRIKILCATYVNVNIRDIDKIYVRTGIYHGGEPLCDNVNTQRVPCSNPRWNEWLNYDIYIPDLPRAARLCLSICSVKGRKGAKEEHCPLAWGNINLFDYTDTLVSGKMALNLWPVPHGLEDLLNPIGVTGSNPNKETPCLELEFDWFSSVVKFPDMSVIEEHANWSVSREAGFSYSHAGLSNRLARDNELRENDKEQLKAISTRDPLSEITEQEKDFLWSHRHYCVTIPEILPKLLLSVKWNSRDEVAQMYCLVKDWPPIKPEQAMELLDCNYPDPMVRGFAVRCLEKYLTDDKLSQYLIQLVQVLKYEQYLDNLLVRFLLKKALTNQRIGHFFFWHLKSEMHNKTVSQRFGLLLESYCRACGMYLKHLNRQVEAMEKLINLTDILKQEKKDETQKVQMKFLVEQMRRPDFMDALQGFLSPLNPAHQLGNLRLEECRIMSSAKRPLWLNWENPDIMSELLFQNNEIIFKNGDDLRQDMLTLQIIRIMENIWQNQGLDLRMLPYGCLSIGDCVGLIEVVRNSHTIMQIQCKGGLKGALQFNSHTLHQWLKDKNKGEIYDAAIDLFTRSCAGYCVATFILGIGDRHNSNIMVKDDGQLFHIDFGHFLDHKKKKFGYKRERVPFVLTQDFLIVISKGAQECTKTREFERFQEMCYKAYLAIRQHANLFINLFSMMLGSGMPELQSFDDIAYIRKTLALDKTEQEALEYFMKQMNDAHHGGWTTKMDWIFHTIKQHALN

Row | IC50 (PIK3CD (Human) [1]) | Compound | also measured
1 | < 10 nM | C#Cc1cccc2nc(Cn3nc(-c4ccc(O)cc4)c4c(N)ncnc43)n(Cc3cccc(C#N)c3)c(=O)c12 | IC50 (PIK3CD (Human) [2]): < 50 nM; IC50 (PIK3CA (human)): 50 to 1000 nM; IC50 (PIK3CG (human)): 50 to 1000 nM
2 | < 10 nM | CC(=O)NCC(=O)NCC#Cc1cccc2nc(Cn3nc(-c4cccc(O)c4)c4c(N)ncnc43)n(Cc3ccccc3Cl)c(=O)c12 | IC50 (PIK3CD (Human) [2]): < 50 nM; IC50 (PIK3CA (human)): 50 to 1000 nM; IC50 (PIK3CG (human)): < 50 nM
3 | < 10 nM | Nc1ncnc2c1c(-c1ccc(O)cc1)nn2Cc1nc2cccc(C#CCCCC(=O)NC3CCNC3)c2c(=O)n1Cc1ccccc1Cl (stereo not drawn) | IC50 (PIK3CD (Human) [2]): < 50 nM; IC50 (PIK3CA (human)): 1490 nM; IC50 (PIK3CG (human)): < 50 nM
4 | < 10 nM | C#Cc1cccc2nc(Cn3nc(-c4ccc(O)cc4)c4c(N)ncnc43)n(Cc3ccc(Cl)c(Cl)c3)c(=O)c12 | 
5 | < 10 nM | C#Cc1cccc2nc(Cn3nc(-c4ccc(O)c(F)c4)c4c(N)ncnc43)n(Cc3ccccc3Cl)c(=O)c12 | 
6 | < 10 nM | Nc1ncnc2c1c(-c1ccc(O)cc1)nn2Cc1nc2cccc(C#CCC3CCCC3)c2c(=O)n1Cc1ccccc1Cl | 
7 | < 10 nM | C#Cc1cccc2nc(Cn3nc(-c4cccc(O)c4)c4c(N)ncnc43)n(Cc3ccc(C(F)(F)F)cc3)c(=O)c12 | 
8 | < 10 nM | N#Cc1cccc(Cn2c(Cn3nc(-c4cccc(O)c4)c4c(N)ncnc43)nc3cccc(C#CCOCCOCCO)c3c2=O)c1 | 
9 | < 10 nM | C#Cc1cccc2nc(Cn3nc(-c4cccc(O)c4)c4c(N)ncnc43)n(Cc3cc(C)on3)c(=O)c12 | 
10 | < 10 nM | CN1CCN(CCN(C)C(=O)CCCC#Cc2cccc3nc(Cn4nc(-c5ccc(O)cc5)c5c(N)ncnc54)n(Cc4ccccc4Cl)c(=O)c23)CC1 | 
11 | < 10 nM | Nc1ncnc2c1c(-c1ccc(O)cc1)nn2Cc1nc2cccc(C#CCCCNC3CCCC3)c2c(=O)n1Cc1ccccc1Cl | 
12 | < 10 nM | CN(C)C1CCN(C(=O)CCCC#Cc2cccc3nc(Cn4nc(-c5ccc(O)cc5)c5c(N)ncnc54)n(Cc4ccccc4Cl)c(=O)c23)CC1 | 
13 | < 10 nM | Nc1ncnc2c1c(-c1cccc(O)c1)nn2Cc1nc2cccc(C#CCCCC(=O)N3CCC(N4CCOCC4)CC3)c2c(=O)n1Cc1ccccc1Cl | 
14 | < 10 nM | C#Cc1cccc2nc(Cn3nc(-c4ccc(O)cc4)c4c(N)ncnc43)n(Cc3ccc(OC)cc3F)c(=O)c12 | 
15 | < 10 nM | COC(=O)c1cccc(Cn2c(Cn3nc(-c4cccc(O)c4)c4c(N)ncnc43)nc3cccc(C#CCCCC(=O)N4CCOCC4)c3c2=O)c1 | 
16 | < 10 nM | COCC#Cc1cccc2nc(Cn3nc(-c4cccc(O)c4)c4c(N)ncnc43)n(Cc3ccc(Cl)cc3)c(=O)c12 | 
17 | < 10 nM | C#Cc1cccc2nc(Cn3nc(-c4ccc(O)cc4)c4c(N)ncnc43)n(Cc3ccc(Cl)cc3F)c(=O)c12 | 
18 | < 10 nM | C#Cc1cccc2nc(Cn3nc(-c4cccc(O)c4)c4c(N)ncnc43)n(Cc3cccc(S(C)(=O)=O)c3)c(=O)c12 | 
19 | < 10 nM | COCCOCC#Cc1cccc2nc(Cn3nc(-c4cccc(O)c4)c4c(N)ncnc43)n(Cc3ccccc3Cl)c(=O)c12 | IC50 (PIK3CD (Human) [2]): < 50 nM; IC50 (PIK3CA (human)): 50 to 1000 nM; IC50 (PIK3CG (human)): 50 to 1000 nM
20 | < 10 nM | C#Cc1cccc2nc(Cn3nc(-c4ccc(O)cc4)c4c(N)ncnc43)n(Cc3cccc(C(F)(F)F)c3)c(=O)c12 | 
21 | < 10 nM | Nc1ncnc2c1c(-c1ccc(O)cc1)nn2Cc1nc2cccc(C#CCCCC(=O)N3CCOCC3)c2c(=O)n1Cc1ccccc1F | 
22 | < 10 nM | CN1CCN(C(=O)CCCC#Cc2cccc3nc(Cn4nc(-c5cccc(O)c5)c5c(N)ncnc54)n(Cc4ccccc4Cl)c(=O)c23)CC1 | 
23 | < 10 nM | CN1CCN(CCNC(=O)CCCC#Cc2cccc3nc(Cn4nc(-c5ccc(O)cc5)c5c(N)ncnc54)n(Cc4ccccc4Cl)c(=O)c23)CC1 | 
24 | < 10 nM | COCCOCCOCC#Cc1cccc2nc(Cn3nc(-c4cccc(O)c4)c4c(N)ncnc43)n(Cc3ccccc3Cl)c(=O)c12 | IC50 (PIK3CD (Human) [2]): < 50 nM; IC50 (PIK3CG (human)): 50 to 1000 nM
25 | < 10 nM | C#Cc1cccc2nc(Cn3nc(-c4ccc(O)cc4)c4c(N)ncnc43)n(Cc3cccc(OC)c3)c(=O)c12 | 
26 | < 10 nM | C#Cc1cccc2nc(Cn3nc(-c4ccc(O)cc4)c4c(N)ncnc43)n(Cc3ccc(OC)cc3)c(=O)c12 | 
27 | < 10 nM | COCCNC(=O)CCCC#Cc1cccc2nc(Cn3nc(-c4cccc(O)c4)c4c(N)ncnc43)n(Cc3ccccc3Cl)c(=O)c12 | 

Row | IC50 (PIK3CD (Human) [1]) | Compound | also measured
28 | < 10 nM | COCCOCCOCC#Cc1cccc2nc(Cn3nc(-c4cccc(O)c4)c4c(N)ncnc43)n(Cc3ccccc3F)c(=O)c12 | 
29 | < 10 nM | C#Cc1cccc2nc(Cn3nc(-c4ccc(O)cc4)c4c(N)ncnc43)n(Cc3cc(OC)ccc3F)c(=O)c12 | 
30 | < 10 nM | COc1cc(Cn2c(Cn3nc(-c4ccc(O)cc4)c4c(N)ncnc43)nc3cccc(C#CCCCC(=O)N4CCOCC4)c3c2=O)cc(C(F)(F)F)c1 | 
31 | < 10 nM | COCCN1CCN(C(=O)CCCC#Cc2cccc3nc(Cn4nc(-c5ccc(O)cc5)c5c(N)ncnc54)n(Cc4ccccc4Cl)c(=O)c23)CC1 | 
32 | 10 to 1000 nM | CN1CCCN(C(=O)CCCC#Cc2cccc3nc(Cn4nc(-c5cccc(O)c5)c5c(N)ncnc54)n(Cc4ccccc4Cl)c(=O)c23)CC1 | 
33 | < 10 nM | CC(=O)N1CCN(C(=O)CCCC#Cc2cccc3nc(Cn4nc(-c5ccc(O)cc5)c5c(N)ncnc54)n(Cc4ccccc4Cl)c(=O)c23)CC1 | 
34 | < 10 nM | C#Cc1cccc2nc(Cn3nc(-c4ccc(O)cc4)c4c(N)ncnc43)n(Cc3ccc(F)cc3)c(=O)c12 | 
35 | < 10 nM | C#Cc1cccc2nc(Cn3nc(-c4ccc(O)cc4)c4c(N)ncnc43)n(Cc3ccc(S(C)(=O)=O)cc3)c(=O)c12 | 
36 | < 10 nM | C#Cc1cccc2nc(Cn3nc(-c4ccc(O)cc4)c4c(N)ncnc43)n(Cc3ccccc3)c(=O)c12 | 
37 | < 10 nM | Cc1cnc(Cn2c(Cn3nc(-c4cccc(O)c4)c4c(N)ncnc43)nc3cccc(C#CCCCC(=O)N4CCOCC4)c3c2=O)cn1 | IC50 (PIK3CD (Human) [2]): < 50 nM; IC50 (PIK3CA (human)): 50 to 1000 nM; IC50 (PIK3CG (human)): < 50 nM
38 | < 10 nM | Nc1ncnc2c1c(-c1cccc(O)c1)nn2Cc1nc2cccc(C#CCCNC(=O)N3CCOCC3)c2c(=O)n1Cc1ccccc1Cl | 
39 | < 10 nM | C#Cc1cccc2nc(Cn3nc(-c4cccc(O)c4)c4c(N)ncnc43)n(Cc3cccc(C#N)c3)c(=O)c12 | 
40 | < 10 nM | NC(=O)NCC#Cc1cccc2nc(Cn3nc(-c4ccc(O)cc4)c4c(N)ncnc43)n(Cc3ccccc3Cl)c(=O)c12 | 
41 | < 10 nM | C#Cc1cccc2nc(Cn3nc(-c4ccc(O)cc4)c4c(N)ncnc43)n(Cc3ccc(C(F)(F)F)cc3)c(=O)c12 | 
42 | < 10 nM | COc1cc(-c2nn(Cc3nc4cccc(C#CCCCC(=O)N5CCOCC5)c4c(=O)n3Cc3ccccc3Cl)c3ncnc(N)c23)ccc1O | 
43 | < 10 nM | C#Cc1cccc2nc(Cn3nc(-c4ccc(O)cc4)c4c(N)ncnc43)n(Cc3ccc(Cl)cc3)c(=O)c12 | 
44 | < 10 nM | C#Cc1cccc2nc(Cn3nc(-c4ccc(O)cc4)c4c(N)ncnc43)n(Cc3ccc(C#N)cc3)c(=O)c12 | 
45 | < 10 nM | Nc1ncnc2c1c(-c1ccc(O)cc1)nn2Cc1nc2cccc(C#CCCCO)c2c(=O)n1Cc1ccccc1Cl | 
46 | < 10 nM | COCCN(CCOC)C(=O)CCCC#Cc1cccc2nc(Cn3nc(-c4ccc(O)cc4)c4c(N)ncnc43)n(Cc3ccccc3Cl)c(=O)c12 | 
47 | < 10 nM | Cc1nc(Cn2c(Cn3nc(-c4cccc(O)c4)c4c(N)ncnc43)nc3cccc(C#CCCCC(=O)N4CCOCC4)c3c2=O)cs1 | 
48 | < 10 nM | C#Cc1cccc2nc(Cn3nc(-c4ccc(O)cc4)c4c(N)ncnc43)n(Cc3cc(C)on3)c(=O)c12 | 
49 | < 10 nM | C#Cc1cccc2nc(Cn3nc(-c4cccc(O)c4)c4c(N)ncnc43)n(Cc3ccc(S(C)(=O)=O)cc3)c(=O)c12 | 
50 | < 10 nM | CC(C)NC(=O)CCCC#Cc1cccc2nc(Cn3nc(-c4cccc(O)c4)c4c(N)ncnc43)n(Cc3ccccc3Cl)c(=O)c12 | 
51 | < 10 nM | Nc1ncnc2c1c(-c1ccc(O)cc1)nn2Cc1nc2cccc(C#CCOc3ccccc3)c2c(=O)n1Cc1ccccc1Cl | 
52 | < 10 nM | Cn1cc(Cn2c(Cn3nc(-c4cccc(O)c4)c4c(N)ncnc43)nc3cccc(C#CCCCC(=O)N4CCOCC4)c3c2=O)cn1 | 
53 | < 10 nM | CN(C)CCNC(=O)CCCC#Cc1cccc2nc(Cn3nc(-c4ccc(O)cc4)c4c(N)ncnc43)n(Cc3ccccc3Cl)c(=O)c12 | 

Row | Compound | IC50 (PIK3CD (Human) [1]) | also measured
54 | C#Cc1cccc2nc(Cn3nc(-c4ccc(O)cc4)c4c(N)ncnc43)n(Cc3ccccc3Cl)c(=O)c12 | < 10 nM | 
55 | C#Cc1cccc2nc(Cn3nc(-c4cccc(O)c4)c4c(N)ncnc43)n(Cc3ccccc3F)c(=O)c12 | < 10 nM | 
56 | C#Cc1cccc2nc(Cn3nc(-c4cccc(O)c4)c4c(N)ncnc43)n(Cc3cccc(Cl)c3)c(=O)c12 | < 10 nM | 

Reference: the Kinase Knowledgebase extract (Sharma et al. 2016)
